In US20020131953A1, “In situ langerhans cell vaccine” (UT SOUTHWESTERN MEDICAL CENTER, priority 2001, published 2002):

B1: MIP-1α (protein, UniProt P10147 24-92, looked up)
C-C motif chemokine 3: SLAADTPTACCFSYTSRQIPQNFIADYFETSSQCSKPGVIFLTKRSRQVCADPSEEWVQKYVSDLELSA
notes: chemokine tested for promoting migration of mature DC
B2: RANTES (protein, UniProt P13501 24-91, looked up)
C-C motif chemokine 5: SPYSSDTTPCCFAYIARPLPRAHIKEYFYTSGKCSNPAVVFVTRKNRQVCANPEKKWVREYINSLEMS
notes: as for B1
B3: MIP-1γ (protein, UniProt P51670 22-122, looked up)
C-C motif chemokine 9: QITHATETKEVQSSLKAQQGLEIEMFHMGFQDSSDCCLSYNSRIQCSRFIGYFPTSGGCTRPGIIFISKRGFQVCANPSDRRVQRCIERLEQNSQPRTYKQ
notes: as for B1

Key:
[1] = tested on: Langerhans cells (LC); experiment: LC entrapment after subcutaneous rod implantation and DNFB painting; format: in vivo, BALB/c mice; conditions: 24 hours after DNFB painting over BSA rod implantation sites
Description: After 24 hr pre-incubation in PBS at 37° C., a MIP-3β or BSA rod was cut into 4 short pieces (2.5 mm length) and implanted subcutaneously into a mouse with 200 μl of PBS using a 20G1/2 needle.
In an attempt to induce LC maturation and elevate MIP-3β responsiveness, DNFB was applied over the implantation sites.

[2] = tested on: Spleen DC; experiment: In vitro Transwell migration of spleen DC toward chemokine; format: cell-based, BALB/c mice; conditions: for % specific migration: spleen cell migration, transwell, 2 hr incubation at 37° C.
Description: (§1) Several chemokines were tested in an in vitro transwell system for their ability to promote migration of mature DC, including MIP-1α, MIP-1γ, MCP-3, RANTES and MIP-3β. In vitro cell migration assays were performed by using 6.5 mm Transwell units (Costar, Cambridge, Mass.). Spleen DC or T cells prepared from BALB/c mice were placed in the upper chamber of the transwell system and chemokine (e.g., MIP-3β) was added to the lower chamber of the transwell system. After 2 hr incubation at 37° C., the migratory cells were harvested from the lower chambers, and the % DC (or T cell) migration was calculated by dividing the output CD11c^+ (or CD3^+) cells by the input CD11c^+ (or CD3^+) cells.

[3] = tested on: T cell migration; experiment: Biological activity of MIP-3β released from EVA rods (T cell chemotaxis assay); format: cell-based; conditions: MIP-3β liberated from the EVA polymer, Day 3 samples tested at 33 or 100% (vol/vol)
Description: To determine whether the released MIP-3β was biologically active, the same samples as used above were tested at 33 or 100% (vol/vol) for their biological activities to promote T cell migration (FIG. 1e). DNFB-induced LC emigration was examined by counting the numbers of IA^+ and DEC205^+ epidermal cells after whole mount epidermal staining. See Mummert et al., 2000, J. Exp. Med. 192:769-779.

[4] = tested on: T cells; experiment: In vitro Transwell migration of T cells toward chemokine; format: cell-based, BALB/c mice; conditions: relative to mature DCs (FIG. 1a)
Description: as §1

| Molecule | % specific migration [2] [%] | other results |
| --- | --- | --- |
| O=[N+]([O-])c1ccc(F)c([N+](=O)[O-])c1 [DNFB, dinitroflourobenzene] |  | reduction in surface LC densities [1]: 25-30% |
| monocyte chemotactic protein-3 [MCP-3] | 18.2 |  |
| MIP-3β | 13.2 | biological activity in the chemotaxis assay [3]: significant biological activities; concentrations promoting migration of mature DCs ([2]; chemokine in lower chamber (FIG. 1a)): 3 to 10 ng/mL; potency in promoting migration of CD11c-positive splenic dendritic cell fractions ([2]; compared among the chemokines tested): most potent; concentrations required for recruiting T cells [4]: much higher concentrations were required |
| B1 | 8.2 |  |
| B2 | 9.1 |  |
| B3 | 5.4 |  |
